Literature values, collected in article PMC5340309 (Biomacromolecules, 2016).

What was measured:
Settings in all cases: included for comparison
[1] = test system: Methicillin-resistant S. epidermidis (MRSE, RP62A)
[2] = test system: P. aeruginosa (ATCC27853)
[3] = test system: Methicillin-resistant S. aureus (MRSA, ATCC 33591)
[4] = test system: K. pneumoniae (ATCC 13383)

pexiganan
MIC MRSE (Gram+) [1]: 8 µg/mL
MIC P. aeruginosa (Gram−) [2]: 16 µg/mL
MIC MRSA (Gram+) [3]: 16 µg/mL
MIC K. pneumonia (Gram−) [4]: 32 µg/mL
